From ChEMBL document CHEMBL1201862, “PubChem BioAssay data set” (2004) come the findings set out here.

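Tested at 5 concentrations; 48 h exposure; 96-well plates; endpoints linearly interpolated, else capped at highest concentration. GI50: concentration for 50% inhibition of growth.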 Calls of active or inactive are those of the source. Cut-off read from the data, not from the text of the source: active = GI50 up to about 1.1 µM and inactive = higher.

Some test systems named below: SF-295; SK-MEL-2; HOP-18; A498; SW-620; OVCAR-8; LOX IMVI; M14; A549; UACC-62; SK-MEL-28; NCI-H23; SK-MEL-5; NCI-H460; SF-539; OVCAR-5; HT-29; RPMI-8226; DU-145; Hs-578T.
Holding throughout (test): NCI tumour cell line growth inhibition, 48 h

Turning to `O=C(O)C1C2CCC(O2)C1C(=O)N1CCCCC1` (stereo unspecified), the GI50 in the assay on SF-295 is 10.4 µM (inactive); with SK-MEL-2, 8.17 µM (inactive); in the assay on HOP-18, 12.9 µM (inactive); in the assay on A498 it was 1.28 µM (inactive); in the assay on SW-620, 3.43 µM (inactive); in the assay on OVCAR-8, 4.61 µM (inactive). In addition, the GI50 is 10.2 µM (inactive) in the assay on LOX IMVI; 12.7 µM (inactive) in the assay with M14; 22.8 µM (inactive) in the assay with A549; 5.26 µM (inactive) with UACC-62; 5.83 µM (inactive) in the assay on SK-MEL-28; 11.7 µM (inactive) in the assay with NCI-H23. Also, the GI50 with SK-MEL-5 is 13.8 µM (inactive); in the assay with NCI-H460 it was 12.8 µM (inactive); in the assay on SF-539 it was 9.4 µM (inactive); with OVCAR-5 it was 26.5 µM (inactive); with HT-29, 4.07 µM (inactive); in the assay on RPMI-8226, 3.26 µM (inactive).

For the compound `O=C1/C(=C/c2ccc(O)c(O)c2)CCC/C1=C\c1ccc(O)c(O)c1`, the GI50 is 8.07 µM (inactive) with SF-295; 3.42 µM (inactive) with SK-MEL-2; 2.81 µM (inactive) in the assay on HOP-18; 7.64 µM (inactive) in the assay with A498; 4.5 µM (inactive) in the assay with DU-145; 2.45 µM (inactive) in the assay with SW-620. In addition, the GI50 with OVCAR-8 was 2.07 µM (inactive); with LOX IMVI it was 2.11 µM (inactive); in the assay with M14, 4.8 µM (inactive); in the assay with A549 it was 7.41 µM (inactive); in the assay with UACC-62, 2.86 µM (inactive); in the assay with SK-MEL-28 it was 3.94 µM (inactive). Further, the GI50 in the assay on Hs-578T was 3.18 µM (inactive); with NCI-H23, 2.76 µM (inactive); in the assay with SK-MEL-5 it was 1.67 µM (inactive); in the assay on NCI-H460, 3.45 µM (inactive); in the assay on SF-539, 2.41 µM (inactive); in the assay with OVCAR-5, 14 µM (inactive). Also, the GI50 is 8.09 µM (inactive) with HT-29 and 2.48 µM (inactive) in the assay with RPMI-8226.

Take `CCOC(=O)NC(=O)c1cn(-c2ccc(CCOC(=O)NCCCCCCNC(=O)OCCc3ccc(-n4c(=O)[nH]cc(C(=O)NC(=O)OCC)c4=O)cc3)cc2)c(=O)[nH]c1=O`: the GI50 in the assay on SF-295 was 31.6 µM (inactive); with SK-MEL-2, > 100 µM (inactive); in the assay with HOP-18 it was > 100 µM (inactive); in the assay on A498, > 80.4 µM (inactive); in the assay on SW-620, > 100 µM (inactive); with OVCAR-8, 40.6 µM (inactive). The GI50 with LOX IMVI is 56.6 µM (inactive); with M14, > 100 µM (inactive); with A549 it was > 100 µM (inactive); with UACC-62 it was 24.1 µM (inactive); in the assay with SK-MEL-28, > 100 µM (inactive); in the assay with NCI-H23, 49.4 µM (inactive). Also, the GI50 was 78.7 µM (inactive) in the assay on SK-MEL-5; 28.8 µM (inactive) with NCI-H460; 23.7 µM (inactive) with SF-539; > 100 µM (inactive) in the assay on OVCAR-5; > 100 µM (inactive) in the assay with HT-29; > 100 µM (inactive) in the assay with RPMI-8226.

Take `COc1ccccc1/C=C1\CCC(CN(C)C)C1=O` (stereo unspecified): the GI50 in the assay on SF-295 was 15.2 µM (inactive); in the assay on SK-MEL-2, 8.51 µM (inactive); in the assay on HOP-18, 22.9 µM (inactive); in the assay on A498, 19.3 µM (inactive); in the assay with DU-145, 11.8 µM (inactive); in the assay on SW-620 it was 2.58 µM (inactive). Also, the GI50 with OVCAR-8 is 5.78 µM (inactive); with LOX IMVI, 2.14 µM (inactive); in the assay with M14, 3.64 µM (inactive); with A549 it was 20.1 µM (inactive); with UACC-62, 4.21 µM (inactive); in the assay with SK-MEL-28 it was 4.36 µM (inactive). Besides, the GI50 is 9.86 µM (inactive) in the assay with Hs-578T; 10.8 µM (inactive) in the assay with NCI-H23; 12.4 µM (inactive) in the assay on SK-MEL-5; 19.6 µM (inactive) in the assay with NCI-H460; 7.41 µM (inactive) in the assay with SF-539; 12.7 µM (inactive) with OVCAR-5. In addition, the GI50 with HT-29 is 4.89 µM (inactive); with RPMI-8226, 2.05 µM (inactive).

For the compound `COc1cccc2c1C(=O)c1c(O)c3c(c(O)c1C2=O)C[C@@](O)(C(C)=O)C[C@@H]3OC1CC(N(Cc2ccccc2)Cc2ccccc2)C(O)C(C)O1` (stereo partly specified), the GI50 was 13.6 µM (inactive) in the assay with SF-295; 16.8 µM (inactive) in the assay with SK-MEL-2; > 45.5 µM (inactive) with HOP-18; 28.5 µM (inactive) with A498; 14.1 µM (inactive) in the assay on DU-145; 4.69 µM (inactive) with SW-620. Moreover, the GI50 was 4.89 µM (inactive) in the assay with OVCAR-8; 5 µM (inactive) in the assay on LOX IMVI; 2.27 µM (inactive) in the assay on M14; 4.55 µM (inactive) in the assay on A549; 16.6 µM (inactive) with UACC-62; 32.8 µM (inactive) with SK-MEL-28. Moreover, the GI50 is 16.9 µM (inactive) in the assay on Hs-578T; 18.6 µM (inactive) in the assay with NCI-H23; 14.6 µM (inactive) in the assay with SK-MEL-5; 0.653 µM (active) in the assay on NCI-H460; 10.9 µM (inactive) with SF-539; 20.5 µM (inactive) with OVCAR-5. For the same compound, the GI50 with HT-29 was 0.474 µM (active); with RPMI-8226, 4.62 µM (inactive).
